“Also recorded” adds a separate entry of the source.
How the values were obtained:
stage IV CRC patients = assay: Response of stage IV CRC patients to oxaliplatin-based first-line treatment (RECIST); type: in vivo, human; conditions: 42 stage IV CRC patients, oxaliplatin-based first-line therapy
Source text: A cohort of 42 pairs of tumor and adjacent normal tissue FFPE blocks obtained from stage IV CRC patients who had received oxaliplatin-based treatment as first-line therapy at Prince of Wales Hospital between 2003 and 2010, and with known clinico-oncologic outcomes were identified from the prospectively collected database. Patients were classified into responders and non-responders group according to RECIST guideline (7). Responders are defined as the patients achieving complete response (CR) and partial response (PR), and non-responder group as patients with stable disease (SD) and progressive disease (PD). Overall survival (OS) was calculated from the operation day to the date of death or the last visit with censoring. The progress free survival (PFS) during first-line chemotherapy was determined from the operation day to the first-line progression as documented by either CT scan, positron emission tomography/CT scan, or Carcinoembryonic antigen (CEA). Forty-six mCRC patients received oxaliplatin-based treatment as first-line therapy at Beijing Oncology Hospital were used as a validation cohort (BJ cohort). […]
miR-133a level was next evaluated in 42 pairs paraffin blocks of tumor and adjacent normal tissues from stage IV CRC patients who had received oxaliplatin-based treatment. […]

[1] = system: CRC cell lines (HT29, SW1116, HCT116, HCT116p53−/−, RKO, DLD1); assay: MTT cell viability assay: oxaliplatin sensitization after ectopic miR-133a expression; type: cell-based, human; conditions: CRC cell lines with ectopic expression of miR-133a; oxaliplatin treatment; FIG. 4
Description: (§1) Human miR-133a precursor (PM10413) was purchased from Thermo Fisher Scientific. […] Cells were transfected with miRNAs using Lipofectamine 2000 (Invitrogene). Cells transfected with miRNA were harvested 12 h to 48 h post-transfection.
After 24 h of transfection, cells were collected and seeded (500-1000/well) in a fresh 96-well plate for 5 days. Cell viability was determined using the conversion of 3-(4,5-dimethylthiazol-2-yl)-2,5-diphenyltetrazolium bromide (MTT) to formazan via mitochondrial oxidation. MTT solution was then added to each well at a final concentration of 0.2 mg/ml per well and the plates were incubated at 37° C. for another 1 h. After incubation, 200 μl of dimethyl sulfoxide was added to each well to dissolve the formazan formed and the absorbance was measured at 570 nm using a spectrophotometer. All the experiments were repeated in three independent experiments in triplicate.
To validate the role of miR-133a in oxaliplatin sensitization in vitro, miR-133a was expressed in the microsatellite stable (HT29, SW1116) and microsatellite instable CRC cell lines (HCT116, HCT116^p53−/−, RKO, DLD1), respectively. 50% inhibitory concentration (IC50) of each cell lines was calculated by means of MTT assay. Restoration of miR-133a was sufficient to result in a 1.5 to 2.9 fold sensitization to oxaliplatin treatment in all the tested cell lines (FIG. 4).

human ATP7B 3′-UTR = assay: Dual-luciferase reporter assay, ATP7B 3′UTR; type: cell-based
Description: (§2) Wild-type or mutanted human ATP7B, ABCC1 and GCLC 3′-UTR were cloned into pMIR-REPORT vector (Thermo Fisher Scientific) at the SacI and SpeI sites, respectively. Co-transfection of reporter plasmids and miRNA in 24-well plates were carried out with lipofectamine 2000 as described by the manufacture. Per well, 195 ng luciferase report plasmid, 5 ng pRL-cytomegalovirus (CMV) vector and 15 pmole miRNA were applied. Cells were harvested 48 h post-transfection and luciferase activities were analyzed by the dual-luciferase reporter assay system (Promega, Madison, Wis.).
(§3) To characterize the chemosensitizing property of miR-133a to oxaliplatin treatment, miR-133a targets that regulated the metabolism of oxaliplatin were searched for. Increased drug efflux and activation of detoxification system are two major aspects that induce Platinum-based drugs resistance (15). Previous studies indicate that ATPase Cu++ transporting beta polypeptide (ATP7B), ATP-binding cassette sub-family C member 1 (ABCC1) and γ-glutamylcysteine liganse (GCLC) regulated Platinum-based drugs efflux and detoxification (16-21). […] Furthermore, their predicted 3′UTR binding sites, as well as their mutant form, were attached to firefly luciferase reporter gene, respectively. miR-133a repressed wild-type ATP7B, ABCC1, and GCLC-3′UTR reporter activity for about 64%, 56% and 42%, respectively (FIG. 5A, P<0.05).

human ABCC1 3′-UTR = assay: Dual-luciferase reporter assay, ABCC1 3′UTR; type: cell-based
Description: as §2, §3

human GCLC 3′-UTR = assay: Dual-luciferase reporter assay, GCLC 3′UTR; type: cell-based
Description: as §2, §3

ATP7B = assay: Endogenous ATP7B expression after miR-133a transfection (qPCR, western blot); type: cell-based, human
Description: as §1
(§4) Protein concentration was measured by the Bradford DC protein assay (Bio-Rad, Hercules, Calif.). 5-20 μg of protein from each sample were separated on 10% Bis-Tris-polyacrylamide gel through electrophoresis and blotted onto nitrocellulose membranes (GE Healthcare, Piscataway, N.J.). Blots were immunostained with primary antibodies at 4° C. overnight and secondary antibody at room temperature for 1 h. Protein was visualized using ECL Plus Western Blotting Detection Reagents (GE Healthcare). Independent experiments were performed at least twice.
(§5) To characterize the chemosensitizing property of miR-133a to oxaliplatin treatment, miR-133a targets that regulated the metabolism of oxaliplatin were searched for. Increased drug efflux and activation of detoxification system are two major aspects that induce Platinum-based drugs resistance (15). Previous studies indicate that ATPase Cu++ transporting beta polypeptide (ATP7B), ATP-binding cassette sub-family C member 1 (ABCC1) and γ-glutamylcysteine liganse (GCLC) regulated Platinum-based drugs efflux and detoxification (16-21). […]

ABCC1 = assay: Endogenous ABCC1 expression after miR-133a transfection (qPCR, western blot); type: cell-based, human
Description: as §1, §4, §5

GCLC = assay: Endogenous GCLC expression after miR-133a transfection (qPCR, western blot); type: cell-based, human
Description: as §1, §4, §5

[2] = qPCR, HCT116 and DLD1 (also HEK293)
[3] = western blot, HCT116, DLD1 and HEK293 (293T in the source)

Molecule | objective response rate (stage IV CRC patients) | IC50 compared with the control group [1] | effect on mutant ATP7B-3′UTR reporter activity (human ATP7B 3′-UTR; mutant 3′UTR) | repression of wild-type ATP7B-3′UTR reporter activity (human ATP7B 3′-UTR; wild-type 3′UTR, P<0.05) | effect on mutant ABCC1-3′UTR reporter activity (human ABCC1 3′-UTR; mutant 3′UTR) | repression of wild-type ABCC1-3′UTR reporter activity (human ABCC1 3′-UTR; wild-type 3′UTR, P<0.05) | effect on mutant GCLC-3′UTR reporter activity (human GCLC 3′-UTR; mutant 3′UTR) | repression of wild-type GCLC-3′UTR reporter activity (human GCLC 3′-UTR; wild-type 3′UTR, P<0.05) | ATP7B mRNA level (ATP7B; [2]) | ATP7B protein level (ATP7B; [3]) | ABCC1 mRNA level (ABCC1; [2]) | ABCC1 protein level (ABCC1; [3]) | GCLC mRNA level (GCLC; [2]) | GCLC protein level (GCLC; [3])
O=C1[O][Pt]2([NH][C@@H]3CCCC[C@H]3[NH]2)[O]C1=O [oxaliplatin, Oxaliplatin] | 29% | – | – | – | – | – | – | – | – | – | – | – | – | –
hsa-miR-133a-3p (UUUGGUCCCCUUCAACCAGCUG; precursor form, further chemistry not given here; listed as Homo sapiens) [Human miR-133a precursor purchased from Thermo Fisher Scientific, transfected into cells] | – | lower | no inhibition effect | about 64% | no inhibition effect | ~56% | no inhibition effect | ~42% | significantly suppressed; also recorded: remarkably reduced; also recorded: decreased | remarkably reduced; also recorded: decreased | significantly suppressed; also recorded: remarkably reduced; also recorded: decreased | remarkably reduced; also recorded: decreased | significantly suppressed; also recorded: remarkably reduced; also recorded: decreased | remarkably reduced; also recorded: decreased

Source: US10900091B2, “miR-133a as a marker for colorectal cancer” (The Chinese University of Hong Kong, priority 2019, dated 2021)
